Measured values from patent US20110136883A1, “GRANULATION OF ACTIVE PHARMACEUTICAL INGREDIENTS” (LEK PHARMACEUTICALS D.D., priority 2008, published 2011).

Legend:
Type in all cases: physicochemical
[1] = Hygroscopicity; conditions: at over 60% RH
Protocol: Hygroscopicity of an API or excipient can be measured by methods known to a skilled person. Mainly, such methods comprise determining the mass of small amounts of sample (i.e. 5-10 mg) as a function of time, while varying the controlled relative humidity and/or temperature in the environment. Data on hygroscopicity of mainly used excipients can be obtained from Handbook of Pharmaceutical Excipients, 4th edition, Rowe R C, Sheskey P J, Weller P J, eds.; Pharmaceutical Press and American Pharmaceutical Association, London-Washington, UK-USA, 2003.

[2] = X-ray diffraction check of eprosartan mesylate form (physical stability during processing); conditions: ambient temperature and humidity used throughout the NAMADG-based method
Protocol: In order to test the ability of the NAMADG process principle according to the present invention for preparing tablets without occurrence different polymorphic forms of the API in the product, a placebo powder without API and anhydrous eprosartan mesylate processed according to Examples 2 to 7 were investigated. All examples were checked for eprosartan form. For comparison tests were conducted after conventional wet granulation conditions.
As a result, physical stability of the eprosartan mesylate was proven during processes when using the most critical API form, i.e. the anhydrate. […] The final tablet form and placebo powder were analyzed by X-ray diffraction (XRD) pattern to confirm presence of anhydrous form of eprosartan mesylate. More generally, X-ray diffraction (XRD) pattern can be obtained by methods known in the art, for example using Philips X'Pert PRO diffractometer with X'Celerator detector while exposing the searched material to CuKa radiation.

[3] = Physical properties of bulk powder / final granulate (moisture, densities, compressibility, flowability, angle of repose)
Protocol: Therefore, an oral pharmaceutical dosage needs a high dose of eprosartan mesylate to be incorporated into the pharmaceutical formulation in order to achieve the desired biological effect (here: significant reduction of blood pressure). The recommended daily starting and usual maintenance dose of eprosartan mesylate when used as monotherapy is 735.8 mg, equivalent to 600 mg eprosartan, available as the commercial Teveten 600 mg tablets. Therefore, the amount of excipients, required to achieve satisfactory technological properties (i.e. flowability, compressibility) should be the least possible to keep the weight of the tablet as low as possible (i.e. less than 1000 mg). Solubility, flowability or compressibility can be determined by using known methods in the art, for example the methods explained in the European Pharmacopoeia, 6th Edition. Larger tablets are in the light of patient compliance less preferred. WO 2006/052461 A1 proposes to enhance bioavailability of eprosartan by addition of substantial amounts of a solubilizer and an emulsifier.
Physical properties of briquetting powder as well as final mixture are important for a successful technological procedure using NAMADG.
Further, the impact of various nonaqueos liquid excipients on the formulation of Eprosartan tablets obtained from Examples 3 to 7 (cf. Tables 2 and 3), referring to a matrix of 1000 mg (mass after NAMADG+briquetting+sieving+blending), are summarized in Table 4.

[4] = bulk eprosartan, particle size <10μ

hygroscopicity [1] | physical and chemical stability [2] | flowability ([3]; drug per se, sticking on punches) | Angle of repose (°) [3, 4] [°] | Compressibility (%) [3, 4] [%] | Flow density [3, 4] [mL/g] | Moisture (%) [3, 4] | Tapped density [3, 4] [mL/g] | flowability [3, 4] [g/s] | Compound
hygroscopic | physically and chemically stable | below 0.15 g/sec | – | – | – | – | – | – | CCCCc1ncc(/C=C(\Cc2cccs2)C(=O)O)n1Cc1ccc(C(=O)O)cc1.CS(=O)(=O)O [eprosartan mesylate, (E)-α-[2-n-butyl-1-[(4-carboxyphenyl)methyl]-1H-imidazol-5-yl]methylene-2-thiophenepropionic acid monomethanesulfonate]
– | – | – | >43 | >30 | >4.00 | 0.1-0.5% | >3.00 | <0.10 | CCCCc1ncc(/C=C(\Cc2cccs2)C(=O)O)n1Cc1ccc(C(=O)O)cc1 [Bulk eprosartan]
